From patent publication US20180280504A1, “GLYCAN-INTERACTING COMPOUNDS AND METHODS OF USE” (SIAMAB THERAPEUTICS, INC., priority 2014, published 2018)

What was measured:
[1] = E3-STn allograft model, average weight of mice; assay type: in vivo, mouse
Description: Balb/c mice were used as part of the test system. 50 female mice were inoculated with E3-STn cells to cause STn-expressing tumor formation. Mice were maintained under pathogen-free conditions with irradiated feed and autoclaved water.
The average weight of mice in each treatment group was also determined on days 1, 4, 6, 8, 11, 13, 15, 18, 20, 22, 26, 27, 29, 32, 34, 36, 39 and 41 following the first administration of each test article (see the following Table). The percent gain or loss over initial weight values is listed in parentheses.

[2] = PAA-glycan ELISA, AcSTn-PAA; assay type: binding; settings: 200 ng/well PAA antigen; 1:5 dilutions from 1 μM
Description: (§1) 18D2 and 18C7 antibodies were further characterized by ELISA comprising antigens other than BSM. ELISAs were carried out according to Example 2, with the exception that ELISA plates were coated with biotinylated polyacrylamide (PAA) particles comprising either AcSTn (AcSTn-PAA), GcSTn (GcSTn-PAA) or Tn (Tn-PAA) as antigens. These particles present the antigens in a multivalent format. Briefly, 96-well ELISA plates were coated with 200 ng/well of each PAA antigen and blocked with PBS with 1% OVA. Antibodies were serially diluted at 1:5 in PBS with 1% OVA using an initial concentration of 1 μM. After blocking, antibodies were added to the plates and plates were incubated for 1.5 hours at room temperature. Binding of anti-STn antibodies was detected using a goat anti-mouse IgG-HRP conjugated antibody (Jackson Immunoresearch Laboratories, West Grove, Pa.). The reaction was developed by addition of HRP substrate and hydrogen peroxide. The reaction was then stopped by the addition of sulfuric acid (1.6 M). Optical densities were measured at 490 nm. A dose-response curve was generated using readings at each concentration tested and a non-linear regression curve was generated with four-parameter modeling to determine EC50 values for each antibody.

[3] = PAA-glycan ELISA, GcSTn-PAA; assay type: binding; settings: 200 ng/well PAA antigen; 1:5 dilutions from 1 μM
Description: as §1

[4] = test system: ST6GalNAc 1 transfected MDA-MB-231 cells (MDA-STn+); experiment: Flow cytometry-based analysis of antibody binding, STn+ cells; design: species or system human; settings: ST6GalNAc 1 transfected MDA-MB-231 cells; APC anti-mouse IgG
Description: Flow cytometry-based analysis is carried out to elucidate the curve-dose response for binding of antibodies to cell surface antigens. For these analyses, three cell lines are employed.
MDA-MB-231 cells are human breast cancer cells. They are grown in Earle's Minimum Essential Medium supplemented with 10% fetal calf serum (FCS), 100 μg/ml penicillin, 100 UI/ml streptomycin and 45 μg/ml gentamycin. MCF-7 cells are also human breast cancer cells and are grown under the same conditions as MDA-MB-231 cells. Stably transfected versions of MDA-MB-231 and MCF-7 cells (clone TAH3.P10 for MDA-MB-231 cells and clone A12.1 for MCF-7 cells) that over express GalNAc α2,6-sialyltransferase (ST6GalNAc 1,) are also cultured under the same conditions with the exception of an added 1 mg/ml of G418 to support cells expressing the transgene. ST6GalNAc 1 is an enzme capable of sialylating GalNAc. As a result of over expression, transfected cells express high levels of Neu5Ac-STn (see Julien, S. et al., Glycoconjugate journal. 2001. 18, 883-93; the contents of which are herein incorporated by reference in their entirety). E3 cells are murine breast cancer cells. They are cultured in Dulbecco's E4 medium with 10% FCS. Stably transfected versions of E3 cells expressing high levels of Neu5Gc-STn (E3-STn) are cultured with 600 μg/ml of G418 and 200 μg/ml hygromycin. During growth and maintenance of experimental cells, trypsin is not used for cell passaging.
For analysis, cells are harvested using StemPro Accutase (Life Technologies, Carlsbad, Calif.) and washed with PBS comprising 5% FBS before pelleting by light centrifugation. Cell numbers and viability are determined by trypan blue dye exclusion analysis and cell concentrations are adjusted to 5×10^6 cells/ml in PBS with 5% FBS. 50 μl of cells are added to each well of an assay plate. Cells are combined with 50 μl solutions of antibody being analyzed or control antibodies and incubated for 1 hour at 4° C. Cells are washed and pelleted twice with PBS with 5% FBS before being treated with 100 μl of PBS with 5% FBS comprising a 1:1,500 dilution of anti-mouse IgG (Southern Biotech, Birmingham, Ala.,) conjugated to allophycocyanin (APC). Cells are incubated for 30 min at 4° C. before washing and resuspending in 200 μl of propidium iodide (PI) diluted 1:1000 in PBS with 5% FBS. Treated cells are then subjects to flow cytometry analysis and 10,000 events are acquired for each sample.

CC(=O)O[C@H]1C(=O)[C@@]2(C)[C@H]([C@H](OC(=O)c3ccccc3)[C@]3(O)C[C@H](OC(=O)[C@H](O)[C@@H](NC(=O)c4ccccc4)c4ccccc4)C(C)=C1C3(C)C)[C@]1(OC(C)=O)CO[C@@H]1C[C@@H]2O [Paclitaxel, reference compound]
Average Weight ([1]; day 1 of study): 16.7 g
Average Weight ([1]; day 4 of study): 16.5 g
Average Weight ([1]; day 6 of study): 17 g
Average Weight ([1]; day 8 of study): 17.3 g
Average Weight ([1]; day 11 of study): 17.1 g
Average Weight ([1]; day 13 of study): 17.4 g
Average Weight ([1]; day 15 of study): 17.8 g
Average Weight ([1]; day 18 of study): 17.6 g
Average Weight ([1]; day 20 of study): 17.8 g
Average Weight ([1]; day 22 of study): 17.9 g
Average Weight ([1]; day 26 of study): 18.3 g
Average Weight ([1]; day 27 of study): 18.5 g
Average Weight ([1]; day 29 of study): 18.9 g
Average Weight ([1]; day 32 of study): 18.9 g
Average Weight ([1]; day 34 of study): 19.2 g
Average Weight ([1]; day 36 of study): 18.5 g
Average Weight ([1]; day 39 of study): 19.1 g
Average Weight ([1]; day 41 of study): 19.2 g

B1: 3F1: commercially available mouse anti-STn monoclonal antibody (SBH Sciences), IgG1; VH SEQ ID NO: 59, VL SEQ ID NO: 60 (antibody, V domains shown)
VH: QVQLQQSDAELVKPGASVKISCKASGYTFTDHAIHWVKQKPEQGLDWIGYISPGNGDIKYNEKFKDKVTLTADKSSSTACMHLNSLTSEDSAVYFCKRSLLALDYWGQGTTLTVSS
VL: DIVMTQSHKFMSTSVGDRVSITCKASQDVGTNIAWYQQKPGRSPKVLIYSASTRHTGVPDRFTGSGSGTDFTLTISNVQSEDLTDYFCQQYSSFPLTFGVGTKLELK
EC50 [2]: 152 nM
EC50 [3]: 73.2 nM
EC50, flow cytometry binding to cell-associated STn [4]: 2.42 nM
